Experiments:
[1] = adult humans; cited from earlier work
[2] = tested on: COX2 expression by mouse bladder cells; assay: Cell-based ELISA of total COX2 in mouse bladder cells; conditions: for induction of COX2 responses by analgesic alone: 5 μM or 50 μM, 24-hour cultures, no stimulus; for effect on the effect of LPS on COX2 levels: LPS (1 μg/ml), analgesic at either 5 μM or 50 μM
Protocol: Bladder cells were removed from euthanized animals C57BL/6 mice (8-12 weeks old) and cells were isolated by enzymatic digestion followed by purification on a Percoll gradient. Briefly, bladders from 10 mice were minced with scissors to fine slurry in 10 ml of digestion buffer (RPMI 1640, 2% fetal bovine serum, 0.5 mg/ml collagenase, 30 μg/ml DNase). Bladder slurries were enzymatically digested for 30 minutes at 37° C. Undigested fragments were further dispersed through a cell-trainer. The cell suspension was pelleted and added to a discontinue 20%, 40% and 75% Percoll gradient for purification on mononuclear cells. Each experiment used 50-60 bladders.
After washes in RPMI 1640, bladder cells were resuspended RPMI 1640 supplemented with 10% fetal bovine serum, 15 mM HEPES, 2 mM L-glutamine, 100 U/ml penicillin, and 100 μg/ml of streptomycin and seeded in clear-bottom black 96-well cell culture microculture plates at a cell density of 3×10^4 cells per well in 100 μl. Cells were cultured at 37° C. in a 5% CO2 atmosphere.
Bladder cells were treated with analgesic solutions (50 well) either alone or together with carbachol (10-Molar, 50 μl/well), as an example of non-inflammatory stimuli, or lipopolysaccharide (LPS) of Salmonella typhimurium (1 μg/ml, 50 μl/well), as an example of […] stimuli. When no other effectors were added to the cells, 50 μl of RPMI 1640 without fetal bovine serum were added to the wells to adjust the final volume to 200 μl.
(§1) After 24 hours of culture, 150 μl of culture supernatants were collected, spun down for 2 min at 8,000 rpm at 4° C. to remove cells and debris and stored at −70° C. for analysis of Prostaglandin E2 (PGE2) responses by ELISA. Cells were fixed, permeabilized and blocked for detection of Cyclooxygenase-2 (COX2) using a fluorogenic substrate. In selected experiment cells were stimulated 12 hours in vitro for analysis of COX2 responses
(§2) COX2 responses were analyzed by a Cell-Based ELISA using Human/mouse total COX2 immunoassay (R&D Systems), following the instructions of the manufacturer. Briefly, after cells fixation and permeabilization, a mouse anti-total COX2 and a rabbit anti-total GAPDH were added to the wells of the clear-bottom black 96-well cell culture microculture plates. After incubation and washes, an HRP-conjugated anti-mouse IgG and an AP-conjugated anti-rabbit IgG were added to the wells. Following another incubation and set of washes, the HRP- and AP-fluorogenic substrates were added. Finally, a Victor® V multilabel plate reader (PerkinElmer) was used to read the fluorescence emitted at 600 nm (COX2 fluorescence) and 450 nm (GAPDH fluorescence). Results are expressed as relative levels of total COX2 as determined by relative fluorescence unit (RFUs) and normalized to the housekeeping protein GAPDH.

[3] = tested on: IL-6 secretion by normal human bladder smooth muscle cells; assay: IL-6 ELISA of normal human bladder smooth muscle cell supernatants; assay type: cell-based
[4] = tested on: COX2 expression by normal human bladder smooth muscle cells; assay: Cell-based ELISA of total COX2 in normal human bladder smooth muscle cells; conditions: for effect on the effect of carbachol and LPS on COX2 levels: LPS-induced responses: analgesic at either 5 μM or 50 μM
Protocol: as §2
Normal human bladder smooth muscle cells were isolated by enzymatic digestion from macroscopically normal pieces of human bladder. Cells were expended in vitro by culture at 37° C. in a 5% CO2 atmosphere in RPMI 1640 supplemented with 10% fetal bovine serum, 15 mM HEPES, 2 mM L-glutamine, 100 U/ml penicillin, and […] of streptomycin and passage once a week by treatment with trypsin to detach cells followed by reseeding in a new culture flask. The first week of culture, the culture medium was supplemented with 0.5 ng/ml epidermal growth factor, 2 ng/ml fibroblast growth factor, and 5 μg/ml insulin.
[…] When no other effectors were added to the cells, 50 μl of RPMI 1640 without fetal bovine serum were added to the wells to adjust the final volume to 200 μl.
as §1, with “COX2” for “Cyclooxygenase-2 (COX2)”, “COX2, PGE2 and cytokine responses.” for “COX2 responses”
COX2 and PGE2 responses were analyzed as described in Example 3. Cytokine responses were analyzed as described in Example 2.

[5] = LPS (1 μg/ml) plus analgesic 5 μM, LPS alone 420 ± 26, unstimulated 158 ± 18
[6] = LPS (1 μg/ml) plus analgesic 50 μM, LPS alone 420 ± 26, unstimulated 158 ± 18
[7] = LPS (10 μg/ml) plus analgesic 5 μM, LPS alone 4383
[8] = LPS (10 μg/ml) plus analgesic 5 μM, LPS alone 4838, mean of duplicates
[9] = LPS (10 μg/ml) plus analgesic 50 μM, LPS alone 4383
[10] = LPS (10 μg/ml) plus analgesic 50 μM, LPS alone 4838, mean of duplicates
[11] = Carbachol 10^−3 M plus analgesic 50 μM, carbachol alone 437, unstimulated 230, mean of duplicates
[12] = Carbachol 10^−3 M plus analgesic 50 μM, carbachol alone 462, unstimulated 199
[13] = LPS (10 μg/ml) plus analgesic 5 μM, LPS alone 633, unstimulated 199
[14] = LPS (10 μg/ml) plus analgesic 5 μM, LPS alone 672, unstimulated 230, mean of duplicates
[15] = LPS (10 μg/ml) plus analgesic 50 μM, LPS alone 633, unstimulated 199
[16] = LPS (10 μg/ml) plus analgesic 50 μM, LPS alone 672, unstimulated 230, mean of duplicates
[17] = stimulus alone, no analgesic (Carbachol 10^−3 M; LPS 10 μg/ml), unstimulated <5

Row | SMILES | Maximum serum levels after oral therapeutic doses [1] | induction of COX2 responses by analgesic alone [2] | Total COX2 levels (Normalized RFUs) [2, 5] | Total COX2 levels (Normalized RFUs) [2, 6] | effect on the effect of LPS on COX2 levels [2] | IL-6 (pg/ml) Subject 2 [3, 7] | IL-6 (pg/ml) Subject 1 [3, 8] | IL-6 (pg/ml) Subject 2 [3, 9] | IL-6 (pg/ml) Subject 1 [3, 10] | Total COX2 levels (Normalized RFUs) subject 1 [4, 11] | Total COX2 levels (Normalized RFUs) subject 2 [4, 12] | Total COX2 levels (Normalized RFUs) subject 2 [4, 13] | Total COX2 levels (Normalized RFUs) subject 1 [4, 14] | Total COX2 levels (Normalized RFUs) subject 2 [4, 15] | Total COX2 levels (Normalized RFUs) subject 1 [4, 16] | effect on the effect of carbachol and LPS on COX2 levels [4] | further results
1 | CC(=O)Nc1ccc(O)cc1 [Acetaminophen, N-acetyl-para-aminophenol] | 11 to 18 mg/L | none of the analgesics tested induced COX2 responses | 275 ± 12 Normalized RFUs | 243 ± 15 Normalized RFUs | suppress | 2308 pg/mL | 2012 pg/mL | 1983 pg/mL | 2018 pg/mL | 298 Normalized RFUs | 310 Normalized RFUs | 457 Normalized RFUs | 428 Normalized RFUs | 509 Normalized RFUs | 399 Normalized RFUs | suppress | 
2 | CC(=O)Oc1ccccc1C(=O)O [Aspirin, Acetylsalicylic acid] | 30 to 100 mg/L | none of the analgesics tested induced COX2 responses | 240 ± 17 Normalized RFUs | 258 ± 21 Normalized RFUs | suppress | 2089 pg/mL | 2199 pg/mL | 2010 pg/mL | 1987 pg/mL | 312 Normalized RFUs | 297 Normalized RFUs | 491 Normalized RFUs | 472 Normalized RFUs | 484 Normalized RFUs | 413 Normalized RFUs | suppress | 
3 | C[N+](C)(C)CCOC(N)=O [Carbachol, carbachol] |  |  |  |  |  |  |  |  |  |  |  |  |  |  |  |  | Total COX2 levels (Normalized RFUs) ([2]; stimulus alone, no analgesic (LPS 1 μg/ml, Carbachol (mM)), unstimulated 158 ± 18): 149 ± 21 Normalized RFUs; Total COX2 levels (Normalized RFUs) ([2]; stimulus alone, no analgesic (LPS 1 μg/ml, Carbachol (mM)), unstimulated 158 ± 18, listed as carbachol): no significant effect; IL-6 (pg/ml) Subject 1 [3, 17]: 232 pg/mL; IL-6 (pg/ml) Subject 2 [3, 17]: 278 pg/mL; COX2 responses to stimulus alone ([4]; no analgesic): induced low, but significant COX2 responses; Total COX2 levels (Normalized RFUs) subject 2 ([4]; stimulus alone, no analgesic (Carbachol 10^−3 M; LPS 10 μg/ml), unstimulated 199): 462 Normalized RFUs; Total COX2 levels (Normalized RFUs) subject 1 ([4]; stimulus alone, no analgesic (Carbachol 10^−3 M; LPS 10 μg/ml), unstimulated 230): 437 Normalized RFUs
4 | CC(C)Cc1ccc(C(C)C(=O)O)cc1 (stereo not drawn) [Ibuprofen, ibuprofen] | 24 to 32 mg/L |  |  |  |  | 2173 pg/mL | 2063 pg/mL | 1991 pg/mL | 2021 pg/mL |  |  |  |  |  |  |  | 
5 | COc1ccc2cc([C@H](C)C(=O)O)ccc2c1 [Naproxen] | ≤ 60 mg/L | none of the analgesics tested induced COX2 responses | 284 ± 11 Normalized RFUs | 279 ± 23 Normalized RFUs | suppress | 2229 pg/mL | 2077 pg/mL | 2028 pg/mL | 2102 pg/mL | 296 Normalized RFUs | 354 Normalized RFUs | 501 Normalized RFUs | 458 Normalized RFUs | 458 Normalized RFUs | 409 Normalized RFUs | suppress | 
